Experimental data reported in paper PMC11396667, “Design, Synthesis, and Anticancer and Antibacterial Activities of Quinoline-5-Sulfonamides” (Molecules, 2024).

Columns and labels:
[1] = test system: C-32 (human amelanotic melanoma) cells; test: WST-1 cell viability assay, C-32; format: cell-based; conditions: WST-1, 72 h exposure, ± SD, n = 6
Method: (§1) The synthesized compounds were tested using three cancer cell lines—human amelanotic melanoma (C-32), human breast adenocarcinoma (MDA-MB-231), and human lung adenocarcinoma (A549)—and, for comparison, normal human dermal fibroblasts (HFF-1). The WST-1 (water-soluble tetrazole salt) assay was used to evaluate the effect of the synthesized compounds on the viability of cultured cells.
(§2) Compounds were evaluated for their antiproliferative activity using three cultured cell lines: C-32 (human amelanotic melanoma, ATCC, Manassas, VA, USA), A549 (human lung adenocarcinoma, ATCC, Manassas, VA, USA), MDA-MB-231 (human breast adenocarcinoma derived from metastatic site: pleural effusion, ATCC, Manassas, VA, USA), together with HFF-1 (normal human dermal fibroblasts, ATCC, Manassas, VA, USA). The cultured cells were kept at 37 °C and 5% CO2.
(§3) Cells were seeded in 96-well plates at 5000/well in 100 μL of medium. After 24 h of incubation, the medium was replaced with a new one with the addition of the test substance. After 72 h, the following tests were performed: with crystal violet (determination of the number of adherent cells in the culture), the WST-1 test (determination of the relative number of living cells and their metabolic activity), and the LDH test (determination of the relative number of dead cells in cultures—cytotoxicity of the tested substance).
(§4) WST-1 test: The WST-1 test (Roche Diagnostics, Mannheim, Germany) allows one to determine the relative number of cells in cultures. Absorbance is directly proportional to the number of cells and their metabolic activity. The absorbance measurement is performed at λ = 450 nm (reference wave 600 nm).

[2] = test system: MDA-MB-231 (human breast adenocarcinoma) cells; test: WST-1 cell viability assay, MDA-MB-231; format: cell-based; conditions: WST-1, 72 h exposure, ± SD, n = 6
Method: as §1, §2, §3, §4

[3] = test system: A549 (human lung adenocarcinoma) cells; test: WST-1 cell viability assay, A549; format: cell-based; conditions: WST-1, 72 h exposure, ± SD, n = 6
Method: as §1, §2, §3, §4

[4] = test system: HFF-1 (normal human dermal fibroblasts); test: WST-1 cell viability assay, normal HFF-1; format: cell-based; conditions: ± SD, n = 6
Method: as §1, §2, §3, §4

S. aureus ATCC 29213 = test: MTT assay of bacterial respiratory activity; format: cell-based, Staphylococcus aureus; conditions: S. aureus ATCC 29213
Excerpt: The MTT assay can be used to assess cell growth by measuring respiration. Bacterial cell respiratory activity (which is ultimately reflected in their viability) of less than 70% after exposure to the MIC values for each test compound is considered as a positive result for this test. This low level of cellular oxidative metabolism indicates inhibition of cell growth by inhibition of respiration. The lowest multiples of the MIC values by which inhibition of S. aureus ATCC 29213 viability [%] greater than 70% was achieved are shown in Table 4. […] Therefore, the antibacterial activity of the discussed compounds cannot be explained solely on the basis of respiration inhibition, so it is very difficult to draw a conclusion regarding the actual mechanism of action, since 8-HQs are multi-target agents, i.e., they affect several different targets at once (as discussed in the section dedicated to anticancer activity), which subsequently leads to the death of the treated resistant microorganisms.
Compounds were prepared as previously stated and diluted in CaMH broth for S. aureus to achieve the desired final concentrations. S. aureus bacterial suspension in sterile distilled water at 0.5 McFarland was diluted 1:3. Inocula were added to each well by multi-inoculator. Diluted mycobacteria in broth free from inhibiting compounds were used as the growth control. All compounds were prepared in duplicate. Plates were incubated at 37 °C for 24 h for S. aureus. After the incubation period, 10% well volume of MTT (3-(4,5-dimethylthiazol-2-yl)-2,5-diphenyltetrazolium bromide) reagent (Sigma) was mixed into each well and incubated at 37 °C 1 h for S. aureus. Then, 100 µL of 17% sodium dodecyl sulphate in 40% dimethylformamide was added to each well. The plates were read at 570 nm. The absorbance readings from the cells grown in the presence of the tested compounds were compared with uninhibited cell growth to determine the relative percent inhibition. The percent inhibition was determined through MTT assay. The percent viability is calculated through the comparison of a measured value and that of the uninhibited control: % viability = OD570E/OD570P × 100, where OD570E is the reading from the compound-exposed cells, while OD570P is the reading from the uninhibited cells (positive control). Cytotoxic potential is determined by a percent viability of <70% [81, 82].

Compound | IC50 [1] | IC50 [2] | IC50 [3] | IC50 ([4]; WST-1, 72 h exposure) | IC50 ([1]; Homo sapiens) | IC50 ([2]; Homo sapiens, MDA-MB-231) | IC50 ([3]; Homo sapiens, A549) | melting point | IC50 ([4]; HFF-1, WST-1, 72 h exposure) | Conc.: lowest multiple of MIC with at least 70% inhibition of respiratory activity (S. aureus ATCC 29213)
N.N.[Cl][Pt][Cl] [CPT, cisplatin, reference compound] | 10.6 ± 0.5 µM | 10.3 ± 0.7 µM | 17.3 ± 1.3 µM | 26 ± 2 µM |  |  |  |  |  | 
C#CCOc1ccc(NS(=O)(=O)c2ccc(OC)c3ncccc23)cc1 [6d, 8-Methoxy-N-[4-(prop-2-yn-1-yloxy)phenyl]quinoline-5-sulfonamide] |  |  |  |  | 86.4 ± 3.9 µM | > 100 µM | > 100 µM | 217 to 219 °C |  | 
C=CCn1cc(CNS(=O)(=O)c2ccc(OC)c3ncccc23)nn1 [7a, N-[(1-Allyl-1H-1,2,3-triazol-4-yl)methyl]-8-methoxyquinoline-5-sulfonamide] |  |  |  |  | > 100 µM | > 100 µM | > 100 µM | 159 to 161 °C |  | 
COc1ccc(S(=O)(=O)NCc2cn(CSc3ccccc3)nn2)c2cccnc12 [7e, N-({1-[(Phenylthio)methyl]-1H-1,2,3-triazol-4-yl}methyl)-8-methoxyquinoline-5-sulfonamide] |  |  |  |  | > 100 µM | 72.2 ± 3.6 µM | > 100 µM | 205 to 207 °C |  | 
COc1ccc(S(=O)(=O)N(C)Cc2cn(Cc3ccccc3)nn2)c2cccnc12 [7g, N-Methyl-N-[(1-benzyl-1H-1,2,3-triazol-4-yl)methyl]-8-methoxyquinoline-5-sulfonamide] |  |  |  |  | 42.6 ± 3.4 µM | > 100 µM | > 100 µM | 214 to 216 °C |  | 
COc1ccc(S(=O)(=O)NC(C)(C)c2cn(Cc3ccccc3)nn2)c2cccnc12 [7f, N-[2-(1-Benzyl-1H-1,2,3-triazol-4-yl)propan-2-yl]-8-methoxyquinoline-5-sulfonamide] |  |  |  |  | > 100 µM | > 100 µM | > 100 µM | 153 to 155 °C |  | 
COc1cccc2c1C(=O)c1c(O)c3c(c(O)c1C2=O)C[C@@](O)(C(=O)CO)C[C@@H]3O[C@H]1C[C@H](N)[C@H](O)[C@H](C)O1 [DOX, doxorubicin, reference compound] |  |  |  |  | 0.3 ± 0.02 µM | 0.6 ± 0.1 µM | 1 ± 0.1 µM |  | 1.4 ± 0.1 µM | 
O=C(O)c1cn(C2CC2)c2cc(N3CCNCC3)c(F)cc2c1=O [CPX, ciprofloxacin, reference compound] |  |  |  |  |  |  |  |  |  | 32 × MIC
COc1ccc(S(=O)(=O)NCc2cn(Cc3ccc(F)cc3)nn2)c2cccnc12 [7c, N-{[1-(4-Fluorobenzyl)-1H-1,2,3-triazol-4-yl]methyl}-8-methoxyquinoline-5-sulfonamide] |  |  |  |  | 89 ± 3.5 µM | > 100 µM | > 100 µM | 194 to 196 °C |  | 
C#CCN(C)S(=O)(=O)c1ccc(OC)c2ncccc12 [6c, 8-Methoxy-N-methyl-N-(prop-2-yn-1-yl)quinoline-5-sulfonamide] |  |  |  |  | 70.1 ± 8.4 µM | > 100 µM | > 100 µM | 112 to 114 °C |  | 
C#CCOc1cccc(NS(=O)(=O)c2ccc(OC)c3ncccc23)c1 [6e, 8-Methoxy-N-[3-(prop-2-yn-1-yloxy)phenyl]quinoline-5-sulfonamide] |  |  |  |  | 32.2 ± 4.8 µM | > 100 µM | > 100 µM | 190 to 192 °C |  | 
COc1ccc(S(=O)(=O)NCc2cn(-c3ccc(Cl)cc3)nn2)c2cccnc12 [7d, N-{[1-(4-Chlorophenyl)-1H-1,2,3-triazol-4-yl]methyl}-8-methoxyquinoline-5-sulfonamide] |  |  |  |  | > 100 µM | > 100 µM | > 100 µM | 224 to 226 °C |  | 
C#CC(C)(C)NS(=O)(=O)c1ccc(OC)c2ncccc12 [6b, 8-Methoxy-N-(1,1-dimethyloprop-2-yn-1-yl)quinoline-5-sulfonamide] |  |  |  |  | 40.6 ± 4.9 µM | > 100 µM | > 100 µM | 217 to 219 °C |  | 
C#CCNS(=O)(=O)c1ccc(OC)c2ncccc12 [6a, 8-Methoxy-N-(prop-2-yn-1-yl)quinoline-5-sulfonamide] |  |  |  |  | > 100 µM | > 100 µM | > 100 µM | 161 to 163 °C |  | 
COc1ccc(S(=O)(=O)Nc2ccc(OCc3cn(Cc4ccccc4)nn3)cc2)c2cccnc12 [7h, N-{4-[(1-Benzyl-1H-1,2,3-triazol-4-yl)methoxy]phenyl}-8-methoxyquinoline-5-sulfonamide] |  |  |  |  | > 100 µM | > 100 µM | > 100 µM | 139 to 141 °C |  | 
COc1ccc(S(=O)(=O)NCc2cn(Cc3ccccc3)nn2)c2cccnc12 [7b, N-[(1-Benzyl-1H-1,2,3-triazol-4-yl)methyl]-8-methoxyquinoline-5-sulfonamide] |  |  |  |  | > 100 µM | > 100 µM | > 100 µM | 170 to 172 °C |  | 
C#CCOc1ccccc1NS(=O)(=O)c1ccc(OC)c2ncccc12 [6f, 8-Methoxy-N-[2-(prop-2-yn-1-yloxy)phenyl]quinoline-5-sulfonamide] |  |  |  |  | 27.7 ± 2.2 µM | > 100 µM | > 100 µM | 187 to 189 °C |  | 
